Assay type in all cases: biochemical
Assay [1] concerns the target T1, human ME3 enzyme (Homo sapiens, UniProt Q16798).
T1 sequence (Q16798 1-604): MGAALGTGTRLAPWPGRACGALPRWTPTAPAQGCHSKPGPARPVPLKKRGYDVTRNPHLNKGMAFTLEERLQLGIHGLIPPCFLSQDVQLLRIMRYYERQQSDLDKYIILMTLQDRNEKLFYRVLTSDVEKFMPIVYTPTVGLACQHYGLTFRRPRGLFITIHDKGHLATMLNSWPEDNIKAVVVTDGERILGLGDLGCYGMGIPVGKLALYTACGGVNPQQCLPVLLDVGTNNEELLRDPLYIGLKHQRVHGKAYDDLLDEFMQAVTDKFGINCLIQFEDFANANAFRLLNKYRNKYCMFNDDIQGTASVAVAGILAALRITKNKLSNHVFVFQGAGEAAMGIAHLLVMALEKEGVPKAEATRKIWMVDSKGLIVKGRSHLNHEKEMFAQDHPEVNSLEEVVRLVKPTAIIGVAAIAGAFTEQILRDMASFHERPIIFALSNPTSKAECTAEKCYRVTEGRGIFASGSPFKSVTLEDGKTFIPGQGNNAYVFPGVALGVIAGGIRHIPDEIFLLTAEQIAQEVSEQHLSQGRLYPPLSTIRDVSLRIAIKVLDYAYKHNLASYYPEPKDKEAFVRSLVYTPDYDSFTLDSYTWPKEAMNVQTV
The assay can be described thus: ME3 inhibition assay (diaphorase/resazurin coupled fluorescence). The settings on record: 10 μM compound concentration; read-out: Malic Enzyme 3 % inhibition (10 μM). A digest of the protocol: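 Coupled read-out: NADPH made by human ME3 (20 nM stock) drives diaphorase conversion of resazurin (50 μM) to resorufin; buffer 50 mM Tris-HCl pH 7.5, 10 mM MnCl2, 3 mM L-malate.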

Assay [2] has as its target human ME2 enzyme (Homo sapiens, UniProt P23368). The experiment in a line: ME2 inhibition assay (diaphorase/resazurin coupled fluorescence). The note with it: 10 μM compound concentration; read-out: Malic Enzyme 2 % inhibition (10 μM). A digest of the protocol: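 Human ME2 (10 μL of 60 nM) was preincubated 5 min at room temperature with compound (10 μM) in 50 mM Tris-HCl pH 7.5, 10 mM MnCl2, 7 mM L-malate, 50 μM resazurin and 0.025 mg/ml diaphorase. The reaction was started with 10 μL of 2 mM β-NAD+ and run 2 hours at room temperature. Resorufin fluorescence (ex 540/em 600 nm) was normalized to enzyme-only (100%) and no-enzyme (0%) controls as % activity.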

The target of assay [3] is T2, human ME1 enzyme (Homo sapiens, UniProt P48163).
T2 sequence (P48163 1-572): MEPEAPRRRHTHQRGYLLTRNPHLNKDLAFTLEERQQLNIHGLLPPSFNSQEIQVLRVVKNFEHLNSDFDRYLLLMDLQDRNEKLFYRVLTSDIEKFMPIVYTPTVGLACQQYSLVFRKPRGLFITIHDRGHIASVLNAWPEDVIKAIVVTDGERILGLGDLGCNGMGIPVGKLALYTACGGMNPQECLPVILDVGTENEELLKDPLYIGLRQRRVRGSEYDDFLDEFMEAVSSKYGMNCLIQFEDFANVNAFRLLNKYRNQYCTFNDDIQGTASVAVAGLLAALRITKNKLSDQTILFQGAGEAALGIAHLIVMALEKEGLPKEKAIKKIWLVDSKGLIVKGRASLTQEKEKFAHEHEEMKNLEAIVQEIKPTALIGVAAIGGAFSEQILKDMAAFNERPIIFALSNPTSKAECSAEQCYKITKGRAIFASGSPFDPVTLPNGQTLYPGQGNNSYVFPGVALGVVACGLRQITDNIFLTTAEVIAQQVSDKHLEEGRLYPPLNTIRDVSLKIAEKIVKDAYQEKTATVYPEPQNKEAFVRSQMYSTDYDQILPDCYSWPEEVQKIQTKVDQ
The experiment in a line: ME1 inhibition assay (diaphorase/resazurin coupled fluorescence). The note with it: 10 μM compound concentration; read-out: Malic Enzyme 1 % inhibition (10 μM). A digest of the protocol:
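Compounds at 10 μM preincubated 15 min in 50 mM Tris-HCl pH 7.5, 10 mM MnCl2, 2 mM L-malate, 10 μM resazurin, 0.01 mg/ml diaphorase, then human ME1 added for 5 min; reaction started with NADP+ and run 2 h at room temperature. Resorufin fluorescence (ex 540/em 600 nm) normalized to enzyme-only (100%) and no-enzyme (0%) controls.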

Counter-ions that a name gives are not always drawn.

Chain of human ME2 enzyme (P23368 19-584): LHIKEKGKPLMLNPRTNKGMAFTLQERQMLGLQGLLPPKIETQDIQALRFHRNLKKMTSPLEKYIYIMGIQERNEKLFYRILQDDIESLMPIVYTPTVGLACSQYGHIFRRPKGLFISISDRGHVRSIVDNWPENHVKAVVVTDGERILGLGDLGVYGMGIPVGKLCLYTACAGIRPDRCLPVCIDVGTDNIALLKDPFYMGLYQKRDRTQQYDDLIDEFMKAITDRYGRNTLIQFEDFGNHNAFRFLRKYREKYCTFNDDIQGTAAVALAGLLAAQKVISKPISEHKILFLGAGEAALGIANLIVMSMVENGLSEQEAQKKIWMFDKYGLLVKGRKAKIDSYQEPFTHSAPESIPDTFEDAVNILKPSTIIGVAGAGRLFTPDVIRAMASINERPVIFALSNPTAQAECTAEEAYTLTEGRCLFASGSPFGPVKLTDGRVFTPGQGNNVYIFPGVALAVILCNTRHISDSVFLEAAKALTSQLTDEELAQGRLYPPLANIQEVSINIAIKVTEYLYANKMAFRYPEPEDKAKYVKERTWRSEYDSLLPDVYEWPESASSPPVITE

With `O=C(C(=O)N1CCN(c2ccc(O)cn2)CC1)c1c[nH]c2ccc(F)cc12` [I.168, 1-(5-Fluoro-1H-indol-3-yl)-2-[4-(5-hydroxy-pyridin-2-yl)-piperazin-1-yl]-ethane-1,2-dione], the inhibition at 10 µM in assay [1], in assay [2] and in assay [3] was more than 90% throughout.
Consider `O=C([C@@H]1C[C@H]1c1ccccc1)N1CCN(c2ccc(O)cn2)CC1` (stereo in doubt) [I.133, [4-(5-hydroxypyridin-2-yl)-piperazin-1-yl]-((1R,2R)-2-phenylcyclopropyl)-methanone], for which the inhibition at 10 µM in assay [1], in assay [2] and in assay [3] was more than 90% throughout.
For the molecule `O=C(CNCC12CC3CC(CC(C3)C1)C2)N1CCN(c2ccc(O)cn2)CC1` [I.57, 2-(1-adamantylmethylamino)-1-[4-(5-hydroxy-2-pyridyl)piperazin-1-yl]ethanone], the inhibition at 10 µM is more than 90% in assay [1], 70 to 89% in assay [2] and 70 to 89% in assay [3].
As to `Cc1cc(F)ccc1CCC(=O)N1CCN(c2ccc(O)cn2)CC1` [I.145, 3-(4-Fluoro-2-methyl-phenyl)-1-[4-(5-hydroxy-pyridin-2-yl)-piperazin-1-yl]-propan-1-one], the inhibition at 10 µM in assay [1], in assay [2] and in assay [3] was more than 90% throughout.
With `O=C(Cc1c[nH]c2ccc(F)cc12)N1CCN(c2ccc(O)cc2)CC1` [I.150, 2-(5-fluoro-1H-indol-3-yl)-1-[4-(4-hydroxy-phenyl)-piperazin-1-yl]-ethanone], the inhibition at 10 µM in assay [1], in assay [2] and in assay [3] was more than 90% each time.
As for `O=C(CCc1cccs1)N1CCN(c2ccc(O)cn2)CC1` [I.116, 1-[4-(5-Hydroxy-pyridin-2-yl)-piperazin-1-yl]-3-thiophen-2-yl-propan-1-one], the inhibition at 10 µM in assay [1], in assay [2] and in assay [3] was more than 90% throughout.
With `O=C(CC1CC1)N1CCN(c2ccc(O)cn2)CC1` [I.137, 2-Cyclo-propyl-1-[4-(5-hydroxy-2-pyridyl)-piperazin-1-yl]ethanone], the inhibition at 10 µM in assay [1], in assay [2] and in assay [3] was more than 90% throughout.
Regarding `O=C(C(c1ccc(Cl)cc1)c1ccc(Cl)cc1)N1CCN(c2ccc(O)cn2)CC1` [I.58, 2,2-bis(4-Chloro-phenyl)-1-[4-(5-hydroxy-2-pyridyl)-piperazin-1-yl]ethanone], the inhibition at 10 µM in assay [1] was more than 90%; in assay [2] it was 50 to 69%; in assay [3], 70 to 89%.
For `COc1ccc(C(=CC(=O)N2CCN(c3ccc(O)cn3)CC2)c2ccc(OC)cc2)cc1` [I.84, 1-[4-(5-Hydroxy-2-pyridyl)-piperazin-1-yl]-3,3-bis(4-methoxy-phenyl)-prop-2-en-1-one] the same measures were more than 90%, 70 to 89% and 70 to 89%.
For `O=C(c1ccnc(N2CCCCC2)c1)N1CCN(c2ccc(O)cc2)CC1` [I.50, [4-(4-Hydroxy-phenyl)-piperazin-1-yl]-[2-(1-piperidyl)-4-pyridyl]-methanone], the inhibition at 10 µM in assay [1], in assay [2] and in assay [3] was more than 90% in each case.
For `CC(C)(CC(=O)N1CCN(c2ccc(O)cc2)CC1)c1ccccc1` [I.173, 1-[4-(4-Hydroxy-phenyl)-piperazin-1-yl]-3-methyl-3-phenyl-butan-1-one hydrochloride salt], the inhibition at 10 µM in assay [1] is more than 90%; in assay [2], more than 90%; in assay [3], 70 to 89%.
With `O=C(CCCc1ccccc1)N1CCN(c2ccc(O)cn2)CC1` [I.65, 1-[4-(5-Hydroxy-pyridin-2-yl)-piperazin-1-yl]-4-phenylbutan-1-one], the results for the inhibition at 10 µM in assay [1], in assay [2] and in assay [3] were more than 90%, 70 to 89% and 70 to 89%, respectively.
On to `O=C(CCc1ccc(C(F)(F)F)cc1)N1CCN(c2ccc(O)cn2)CC1` [I.139, 3-(4-Trifluoro-methylphenyl)-1-[4-(5-hydroxy-pyridin-2-yl)-piperazin-1-yl]-propan-1-one], for which the inhibition at 10 µM in assay [1], in assay [2] and in assay [3] was more than 90% in each case.
`O=C(c1c[nH]c2ccccc2c1=O)N1CCN(c2ccc(O)cc2)CC1` [I.47, 3-[4-(4-Hydroxy-phenyl)-piperazine-1-carbonyl]-1H-quinolin-4-one]: the inhibition at 10 µM in assay [1], in assay [2] and in assay [3] was more than 90% each time.
As for `O=C(Cc1ccccc1)N1CCN(c2ccc(O)cc2)CC1` [I.1, 1-[4-(4-hydroxyphenyl)piperazin-1-yl]-2-phenylethanone], the inhibition at 10 µM in assay [1], in assay [2] and in assay [3] was more than 90% in each case.
As to `O=C(CCc1ccccc1)N1CCN(c2ccc(O)cn2)CC1` [I.45, 1-[4-(5-hydroxy-pyridin-2-yl)-piperazin-1-yl]-3-phenyl-propan-1-one], the results for the inhibition at 10 µM in assay [1], in assay [2] and in assay [3] were more than 90%, 70 to 89% and more than 90%, respectively.
As for `O=C(Cc1c[nH]c2ccccc12)N1CCN(c2ccc(O)cn2)CC1` [I.62, 1-[4-(5-Hydroxy-pyridin-2-yl)-piperazin-1-yl]-2-(1H-indol-3-yl)-ethanone], the inhibition at 10 µM in assay [1] was more than 90%; in assay [2], 70 to 89%; in assay [3] it was 70 to 89%.
As for `O=C(CCn1cnc2ccccc21)N1CCN(c2ccc(O)cn2)CC1` [I.136, 3-Benzo-imidazol-1-yl-1-[4-(5-hydroxy-pyridin-2-yl)-piperazin-1-yl]-propan-1-one], the inhibition at 10 µM in assay [1] was more than 90%; in assay [2], more than 90%; in assay [3], 70 to 89%.
`O=C(CC(O)c1ccccc1)N1CCN(c2ccc(O)cn2)CC1` (stereo not drawn) [I.130, 3-Hydroxy-1-[4-(5-hydroxy-pyridin-2-yl)-piperazin-1-yl]-3-phenyl-propan-1-one]: the figures for the inhibition at 10 µM in assay [1], in assay [2] and in assay [3] were more than 90%, more than 90% and 70 to 89%, respectively.
On to `O=C(Cc1ccccc1Oc1ccccc1)N1CCN(c2ccc(O)cc2)CC1` [I.49, 1-[4-(4-hydroxyphenyl)piperazin-1-yl]-2-(2-phenoxyphenyl)ethanone], for which the inhibition at 10 µM in assay [1], in assay [2] and in assay [3] was more than 90% throughout.
On to `O=C(CC1c2ccccc2-c2ccccc21)N1CCN(c2ccc(O)cn2)CC1` [I.61, 2-(9H-Fluoren-9-yl)-1-[4-(5-hydroxy-2-pyridyl)-piperazin-1-yl]ethanone], for which the inhibition at 10 µM is more than 90% in assay [1], 70 to 89% in assay [2] and 70 to 89% in assay [3].
Regarding `O=C(CCc1ccc(F)cc1)N1CCN(c2ccc(O)cn2)CC1` [I.126, 3-(4-Fluoro-phenyl)-1-[4-(5-hydroxy-pyridin-2-yl)-piperazin-1-yl]-propan-1-one], the inhibition at 10 µM in assay [1], in assay [2] and in assay [3] was more than 90% in each case.

For the origin of these results see patent US11225480B2, “Malic enzyme inhibitors” (SUN PHARMA ADVANCED RESEARCH COMPANY LTD, priority 2019, dated 2022).
